The values below come from ChEMBL document CHEMBL1201862, “PubChem BioAssay data set” (2004).

Some test systems named below: T47D; SK-MEL-5; MCF7; OVCAR-5; HCT-15; SN12C; TK-10; NCI-H226; BT-549; K562; M14; KM12; OVCAR-8; MDA-MB-435; COLO 205; Malme-3M; A549; U-251; HOP-92; NCI/ADR-RES.
Test in all cases: NCI-60 cell line screen, 48 h

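48-hour exposure; five concentrations; linearly interpolated endpoints. GI50 marks 50% less growth.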 Active and inactive are the calls of the source. No stated cut-off is given here; in the data, active = GI50 up to about 1.1 µM and inactive = higher.

With `C=C(C)[C@H]1[C@@H]2OC(=O)[C@H]1[C@]1(O)C[C@H]3OC34C(=O)O[C@H]2[C@@]41C.CC(C)(O)[C@H]1[C@@H]2OC(=O)[C@H]1[C@]1(O)C[C@H]3OC34C(=O)O[C@H]2[C@@]41C` (stereo not given in full), the GI50 with T47D is > 100 µM (inactive); in the test on SK-MEL-5 it was > 100 µM (inactive); in the test with MCF7 it was > 100 µM (inactive); in the test on OVCAR-5 it was > 100 µM (inactive); with HCT-15 it was over 100 µM; in the test with SN12C it was > 100 µM (inactive). Moreover, the GI50 in the test on TK-10, in the test with NCI-H226, in the test on BT-549, in the test with K562, with M14 and in the test with KM12 was > 100 µM (inactive) each time. Moreover, the GI50 with OVCAR-8, in the test on MDA-MB-435, in the test on COLO 205, in the test on Malme-3M, in the test with A549 and in the test on U-251 was > 100 µM (inactive) each time. In addition, the GI50 in the test on HOP-92 was > 100 µM (inactive).
For the compound `O=c1[nH]c2ccccc2c2nc3ccccc3n12`, the GI50 in the test on T47D is > 100 µM (inactive); in the test on SK-MEL-5, 19.5 µM (inactive); with MCF7 it was 21.8 µM (inactive); in the test with OVCAR-5 it was > 100 µM (inactive); in the test on HCT-15, over 100 µM; in the test on SN12C, > 100 µM (inactive). Moreover, the GI50 is 6.75 µM (inactive) in the test with TK-10; 83 µM (inactive) with BT-549; > 100 µM (inactive) in the test on K562; > 100 µM (inactive) in the test on M14; 22.4 µM (inactive) in the test with KM12; > 100 µM (inactive) in the test with OVCAR-8. Also, the GI50 in the test on MDA-MB-435 was > 100 µM (inactive); with COLO 205 it was 29.2 µM (inactive); with Malme-3M, 13.1 µM (inactive); with NCI/ADR-RES, 81.1 µM (inactive); with A549, 33.2 µM (inactive); in the test on U-251, 46.1 µM (inactive). The GI50 with HOP-92 is 13.9 µM (inactive).
As to `O=[N+]([O-])c1cccc(-c2csc(N/N=C3\NC/C(=C/c4ccc5c(c4)OCO5)S3)n2)c1`, the GI50 is 29.9 µM (inactive) in the test on T47D; 17.3 µM (inactive) in the test on SK-MEL-5; 33.7 µM (inactive) in the test with MCF7; 28.4 µM (inactive) with OVCAR-5; 35.7 µM in the test on HCT-15; 37.2 µM (inactive) with SN12C. Also, the GI50 in the test with TK-10 was 32.2 µM (inactive); with NCI-H226, 16.6 µM (inactive); in the test on BT-549 it was 25.1 µM (inactive); with K562, 38.3 µM (inactive); in the test with M14, 23.3 µM (inactive); in the test with KM12, 12.9 µM (inactive). For the same compound, the GI50 in the test with OVCAR-8 was 14.3 µM (inactive); with MDA-MB-435 it was 40.2 µM (inactive); with COLO 205, 28.4 µM (inactive); in the test with NCI/ADR-RES it was 19.6 µM (inactive); with A549 it was 39.4 µM (inactive); in the test on U-251 it was 33.4 µM (inactive). Moreover, in the test with HOP-92, the GI50 is 16.1 µM (inactive).
As for `CN1c2ccccc2S(=O)(=O)n2c(CCc3ccccc3)nnc21`, the GI50 in the test on T47D was > 100 µM (inactive); with SK-MEL-5 it was > 100 µM (inactive); with MCF7, > 100 µM (inactive); with OVCAR-5 it was > 100 µM (inactive); in the test with HCT-15, over 100 µM; in the test on SN12C, > 100 µM (inactive). For the same compound, the GI50 in the test with TK-10, with NCI-H226, with BT-549, in the test on K562, in the test on M14 and in the test on KM12 was > 100 µM (inactive) in each case. Moreover, the GI50 in the test with OVCAR-8, in the test on MDA-MB-435, in the test with COLO 205, in the test with NCI/ADR-RES, in the test with A549 and in the test on U-251 was > 100 µM (inactive) in each case. In addition, the GI50 in the test on HOP-92 is 37.8 µM (inactive).
As to `Sc1nnc(NNc2ccccc2)n1Nc1ccccc1`, the GI50 in the test on T47D is 0.528 µM (active); in the test on SK-MEL-5, 0.488 µM (active); in the test on MCF7 it was 0.508 µM (active); with OVCAR-5 it was > 55.2 µM (inactive); in the test with HCT-15, 2.1 µM; in the test on SN12C it was > 95.9 µM (inactive). In addition, the GI50 is > 52.6 µM (inactive) in the test with TK-10; 22.6 µM (inactive) with NCI-H226; 8.69 µM (inactive) in the test with BT-549; 0.0213 µM (active) with K562; 2.02 µM (inactive) in the test on M14; 26.1 µM (inactive) in the test with KM12. Further, the GI50 in the test with OVCAR-8 was 21.2 µM (inactive); in the test with MDA-MB-435, 0.321 µM (active); with COLO 205, 0.109 µM (active); in the test with NCI/ADR-RES, 34.3 µM (inactive); with A549, 8.97 µM (inactive); in the test on U-251, 21.1 µM (inactive). The GI50 in the test on HOP-92 is 25.3 µM (inactive).
As for `O=C1C=CC(=O)c2c1ccc1c3ccccc3n(-c3ccccc3[N+](=O)[O-])c21`, the GI50 in the test with T47D was 1.33 µM (inactive); in the test with SK-MEL-5 it was 6.89 µM (inactive); with MCF7, 3.3 µM (inactive); with OVCAR-5, 17.3 µM (inactive); in the test on HCT-15, 2.96 µM; with SN12C, 4.01 µM (inactive). The GI50 in the test on TK-10 was 2.44 µM (inactive); in the test with NCI-H226 it was 20.2 µM (inactive); in the test on BT-549, 4.97 µM (inactive); with K562 it was 0.828 µM (active); in the test with M14 it was 2.03 µM (inactive); in the test on KM12, 8.97 µM (inactive). For the same compound, the GI50 in the test with OVCAR-8 was 2.03 µM (inactive); in the test with MDA-MB-435, 2.26 µM (inactive); in the test with COLO 205, 2.07 µM (inactive); in the test with Malme-3M, 2.17 µM (inactive); in the test with NCI/ADR-RES it was 5.05 µM (inactive); in the test on A549, 21.7 µM (inactive). Moreover, the GI50 with U-251 is 4.59 µM (inactive).
For the compound `CC(C)(C)OC(=O)N(CCCCN(CCCNC(=O)C(F)(F)F)C(=O)OC(C)(C)C)CCCNC(=O)C(F)(F)F`, the GI50 in the test on T47D is > 100 µM (inactive); with SK-MEL-5, 79.3 µM (inactive); in the test with MCF7, > 100 µM (inactive); in the test on OVCAR-5, > 100 µM (inactive); in the test with HCT-15 it was over 100 µM; in the test with SN12C, > 100 µM (inactive). In addition, the GI50 is > 100 µM (inactive) in the test on TK-10; > 100 µM (inactive) in the test with NCI-H226; > 100 µM (inactive) with BT-549; 98.9 µM (inactive) with K562; > 100 µM (inactive) in the test with M14; > 100 µM (inactive) in the test on KM12. Also, the GI50 in the test with OVCAR-8 is > 100 µM (inactive); in the test on MDA-MB-435, > 100 µM (inactive); in the test on COLO 205, > 100 µM (inactive); in the test with NCI/ADR-RES, 91.2 µM (inactive); in the test with A549, > 100 µM (inactive); with U-251 it was > 100 µM (inactive). In the test with HOP-92, the GI50 was > 100 µM (inactive).
As for `O=C(Nc1cccc(C(F)(F)F)c1)C(=O)C(C(=O)c1ccc2ccccc2c1)C1OC(=O)c2ccccc21` (stereo not given), the GI50 was 8.99 µM (inactive) with T47D; 10.5 µM (inactive) in the test on SK-MEL-5; 7.16 µM (inactive) in the test with MCF7; 14.3 µM (inactive) in the test with OVCAR-5; 8.13 µM with HCT-15; 13.2 µM (inactive) in the test on SN12C. In addition, the GI50 in the test with TK-10 is 22.6 µM (inactive); in the test on NCI-H226 it was 2.89 µM (inactive); in the test on BT-549, 14.3 µM (inactive); in the test with K562 it was 5.38 µM (inactive); with M14 it was 13 µM (inactive); in the test with KM12, 12.2 µM (inactive). In addition, the GI50 is 6.35 µM (inactive) in the test with OVCAR-8; 17.4 µM (inactive) in the test on MDA-MB-435; 10.9 µM (inactive) in the test on COLO 205; 6.81 µM (inactive) with Malme-3M; 10.7 µM (inactive) with A549; 4.08 µM (inactive) in the test on U-251. Further, in the test with HOP-92, the GI50 is 22.8 µM (inactive).
As to `CN(C)/C=N\c1nncc2[nH]nnc12`, the GI50 in the test on T47D is > 100 µM (inactive); with SK-MEL-5, > 100 µM (inactive); with MCF7, > 100 µM (inactive); in the test on OVCAR-5 it was > 100 µM (inactive); in the test with HCT-15, over 100 µM; in the test with SN12C it was > 100 µM (inactive). Moreover, the GI50 with TK-10, in the test with NCI-H226, in the test with BT-549, in the test on K562, with M14 and in the test on KM12 was > 100 µM (inactive) in each case. Moreover, the GI50 in the test on OVCAR-8, in the test with MDA-MB-435, in the test on COLO 205, in the test on NCI/ADR-RES, in the test on A549 and in the test with U-251 was > 100 µM (inactive) throughout.
In the case of `CCN(CC)CCN(/C(=N/c1ccccc1)N1CCOCC1)c1ccccc1`, the GI50 in the test with T47D is > 100 µM (inactive); in the test with SK-MEL-5, > 100 µM (inactive); with MCF7, 89.3 µM (inactive); in the test on HCT-15, over 100 µM; in the test with SN12C, > 100 µM (inactive); in the test on TK-10, > 100 µM (inactive). For the same compound, the GI50 in the test with NCI-H226, in the test on BT-549, in the test on K562, in the test on M14, with KM12 and in the test on OVCAR-8 was > 100 µM (inactive) each time. For the same compound, the GI50 with MDA-MB-435 is 28.8 µM (inactive); in the test with COLO 205, 39.4 µM (inactive); with Malme-3M, > 100 µM (inactive); with NCI/ADR-RES, > 100 µM (inactive); in the test with A549, > 100 µM (inactive); in the test on U-251, > 100 µM (inactive).
For the compound `NC(CC1=CCC=CC1)C(=O)O` (stereo not given), the GI50 is > 100 µM (inactive) in the test on T47D; > 100 µM (inactive) with SK-MEL-5; 47.4 µM (inactive) in the test on MCF7; > 100 µM (inactive) in the test with OVCAR-5; 57.9 µM in the test with HCT-15; > 100 µM (inactive) in the test with SN12C. Moreover, the GI50 in the test on TK-10 is > 100 µM (inactive); in the test with BT-549 it was > 100 µM (inactive); with K562, 28.9 µM (inactive); in the test with M14 it was 80.2 µM (inactive); in the test with KM12, 68.2 µM (inactive); with OVCAR-8, 67.1 µM (inactive). Moreover, the GI50 with MDA-MB-435 was 71.8 µM (inactive); in the test on COLO 205, 38 µM (inactive); in the test on A549, 74.5 µM (inactive); in the test on U-251 it was 64.4 µM (inactive); with HOP-92 it was > 100 µM (inactive).
